Assay results as given in the supplement of paper PMC9763283.

How the values were obtained:
Experiment in all cases: area under growth-rate inhibition curve (AUC GRI) (dimensionless (GR-based AUC)); higher = less growth inhibition
Conditions in all cases: exposure time: 72 h; concentrations: 0.1, 1, 10 uM
BT474-LTR = test system: BT474-LTR
Procedure, shortened: (§1)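 The area under the growth-rate inhibition curve was measured in six breast cancer cell line models, covering triple-negative lines and HER2+ lines, both parental and resistant to a two-drug combination. Cells were exposed to compound at 0.1, 1 or 10 µM for 72 h, fixed in 4% paraformaldehyde, and nuclei were stained with Hoechst 33342 or DAPI for imaging and counting. Day 0 plates, untreated Day 3 plates and DMSO controls served to correct growth across 2 biological replicates.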

BT474-P = test system: BT474-P
Procedure, shortened: as §1

MDA-MB-231 = test system: MDA-MB-231
Procedure, shortened: as §1

MDA-MB-468 = test system: MDA-MB-468
Procedure, shortened: as §1

SKBR3-LTR = test system: SKBR3-LTR
Procedure, shortened: as §1

SKBR3-P = test system: SKBR3-P
Procedure, shortened: as §1

CC(C)NCC(O)c1ccc(O)c(O)c1.[Cl-].[H+] (stereo not drawn) [Isoprenaline HCl]
area under growth-rate inhibition curve (BT474-LTR): 1.08
area under growth-rate inhibition curve (BT474-P): 1.04
area under growth-rate inhibition curve (MDA-MB-231): 1.05
area under growth-rate inhibition curve (MDA-MB-468): 1.04
area under growth-rate inhibition curve (SKBR3-LTR): 1.03
area under growth-rate inhibition curve (SKBR3-P): 0.995

COc1cc2c(cc1OC)CC(=O)N(CCCN(C)CC1Cc3cc(OC)c(OC)cc31)CC2.Cl (stereo not drawn) [Ivabradine HCl]
area under growth-rate inhibition curve (BT474-LTR): 1.04
area under growth-rate inhibition curve (BT474-P): 1.02
area under growth-rate inhibition curve (MDA-MB-231): 1.01
area under growth-rate inhibition curve (MDA-MB-468): 1.01
area under growth-rate inhibition curve (SKBR3-LTR): 1.07
area under growth-rate inhibition curve (SKBR3-P): 1.03

CCc1ccc(OCc2ccccc2C(=O)Nc2ccc3nc(C)cc(N)c3c2)cc1.[Cl-].[H+] [JTC-801]
area under growth-rate inhibition curve (BT474-LTR): 0.744
area under growth-rate inhibition curve (BT474-P): 0.751
area under growth-rate inhibition curve (MDA-MB-231): 0.713
area under growth-rate inhibition curve (MDA-MB-468): 0.718
area under growth-rate inhibition curve (SKBR3-LTR): 0.8
area under growth-rate inhibition curve (SKBR3-P): 0.778

CN1CCC(=C2c3ccccc3CC(=O)c3sccc32)CC1.O=C(O)/C=C/C(=O)O [Ketotifen Fumarate]
area under growth-rate inhibition curve (BT474-LTR): 1.07
area under growth-rate inhibition curve (BT474-P): 1.02
area under growth-rate inhibition curve (MDA-MB-231): 0.939
area under growth-rate inhibition curve (MDA-MB-468): 1
area under growth-rate inhibition curve (SKBR3-LTR): 1.1
area under growth-rate inhibition curve (SKBR3-P): 1.01

N[C@@H](Cc1ccc(O)c(O)c1)C(=O)O [L-DOPA]
area under growth-rate inhibition curve (BT474-LTR): 1.04
area under growth-rate inhibition curve (BT474-P): 0.987
area under growth-rate inhibition curve (MDA-MB-231): 1.05
area under growth-rate inhibition curve (MDA-MB-468): 1.05
area under growth-rate inhibition curve (SKBR3-LTR): 1.05
area under growth-rate inhibition curve (SKBR3-P): 1.03

Cc1c(C(=O)Nc2ccc(N3CC(C)OC(C)C3)nc2)cccc1-c1ccc(OC(F)(F)F)cc1 (stereo not drawn) [LDE225 (NVP-LDE225,Erismodegib)]
area under growth-rate inhibition curve (BT474-LTR): 1.04
area under growth-rate inhibition curve (BT474-P): 0.909
area under growth-rate inhibition curve (MDA-MB-231): 0.921
area under growth-rate inhibition curve (MDA-MB-468): 0.915
area under growth-rate inhibition curve (SKBR3-LTR): 1.03
area under growth-rate inhibition curve (SKBR3-P): 0.981

CC(CCc1ccccc1)NCC(O)c1ccc(O)c(C(N)=O)c1.Cl (stereo not drawn) [Labetalol HCl]
area under growth-rate inhibition curve (BT474-LTR): 1.07
area under growth-rate inhibition curve (BT474-P): 1.1
area under growth-rate inhibition curve (MDA-MB-231): 1.06
area under growth-rate inhibition curve (MDA-MB-468): 1.04
area under growth-rate inhibition curve (SKBR3-LTR): 1.06
area under growth-rate inhibition curve (SKBR3-P): 1.01

O=C(CS(=O)Cc1ccco1)NC/C=C\COc1cc(CN2CCCCC2)ccn1 (stereo not drawn) [Lafutidine]
area under growth-rate inhibition curve (BT474-LTR): 1.1
area under growth-rate inhibition curve (BT474-P): 1.02
area under growth-rate inhibition curve (MDA-MB-231): 1.03
area under growth-rate inhibition curve (MDA-MB-468): 1.02
area under growth-rate inhibition curve (SKBR3-LTR): 1.06
area under growth-rate inhibition curve (SKBR3-P): 0.987

OC[C@H](O)CN1CCN(c2ccccc2)CC1 [Levodropropizine]
area under growth-rate inhibition curve (BT474-LTR): 0.995
area under growth-rate inhibition curve (BT474-P): 1.01
area under growth-rate inhibition curve (MDA-MB-231): 0.999
area under growth-rate inhibition curve (MDA-MB-468): 1.03
area under growth-rate inhibition curve (SKBR3-LTR): 0.975
area under growth-rate inhibition curve (SKBR3-P): 1.02

CCN1CCCC1CNC(=O)c1cc(S(N)(=O)=O)ccc1OC (stereo not drawn) [Levosulpiride]
area under growth-rate inhibition curve (BT474-LTR): 1.06
area under growth-rate inhibition curve (BT474-P): 1.02
area under growth-rate inhibition curve (MDA-MB-231): 1.01
area under growth-rate inhibition curve (MDA-MB-468): 1.03
area under growth-rate inhibition curve (SKBR3-LTR): 1.05
area under growth-rate inhibition curve (SKBR3-P): 1.01

CCN(CC)CC(=O)Nc1c(C)cccc1C [Lidocaine]
area under growth-rate inhibition curve (BT474-LTR): 1.11
area under growth-rate inhibition curve (BT474-P): 1.04
area under growth-rate inhibition curve (MDA-MB-231): 1.03
area under growth-rate inhibition curve (MDA-MB-468): 1.05
area under growth-rate inhibition curve (SKBR3-LTR): 1.08
area under growth-rate inhibition curve (SKBR3-P): 1.03

NCCCC[C@H](N[C@@H](CCc1ccccc1)C(=O)O)C(=O)N1CCC[C@H]1C(=O)O.O.O [Lisinopril]
area under growth-rate inhibition curve (BT474-LTR): 1.1
area under growth-rate inhibition curve (BT474-P): 1.06
area under growth-rate inhibition curve (MDA-MB-231): 1.01
area under growth-rate inhibition curve (MDA-MB-468): 1
area under growth-rate inhibition curve (SKBR3-LTR): 1.08
area under growth-rate inhibition curve (SKBR3-P): 1.02

CN(C)C(=O)C(CCN1CCC(O)(c2ccc(Cl)cc2)CC1)(c1ccccc1)c1ccccc1.[Cl-].[H+] [Loperamide HCl]
area under growth-rate inhibition curve (BT474-LTR): 0.94
area under growth-rate inhibition curve (BT474-P): 0.882
area under growth-rate inhibition curve (MDA-MB-231): 1.03
area under growth-rate inhibition curve (MDA-MB-468): 0.911
area under growth-rate inhibition curve (SKBR3-LTR): 1
area under growth-rate inhibition curve (SKBR3-P): 0.943
